One may read the IC50 as the midpoint of a concentration-inhibition curve.

Entries after “also recorded” stand apart in the source; their conditions may differ. Bounds are passed on as bounds.

One test addresses T1, human DGKalpha (Homo sapiens, UniProt P23743).
T1 construct: made in house; host or cells: baculovirus-infected Sf9 insect cells
Description: Human DGKalpha kinase activity inhibition assay (ADP-Glo). To be noted: read-out: IC50 hDGKa. It counts as biochemical. The protocol:
Human DGKalpha inhibitory activity of compounds of the present invention was quantified employing the human DGKalpha kinase activity assay as described in the following paragraphs. In essence, the enzyme activity was measured by quantification of the adenosine-di-phosphate (ADP) generated as a co-product of the enzyme reaction via the “ADP-Glo™ Kinase Assay” kit from the company Promega. This detection system works as follows: In a first step the ATP not consumed in the kinase reaction is quantitatively converted to cAMP employing an adenylate cyclase (“ADP-Glo-reagent”), then the adenylate cyclase is stopped and the ADP generated in the kinase reaction converted to ATP, which subsequently generates in a luciferase-based reaction a glow-luminescence signal (“Kinase Detection Reagent”).
C-terminally FLAG-tagged, recombinant full-length human DGKalpha (expressed in baculovirus infected insect cells, purified using anti-Flag pulldown and size exclusion chromatography as described below, DGKa_hu_1) was used as enzyme. As substrate for the kinase 1,2-dioleoyl-sn-glycerol, reconstituted in octyl-β-D-glucopyranoside micelles, was used. […] Then 35 volumes of 50 mM MOPS buffer (pH 7.4) were added to yield a solution of 0.28 mM 1,2 dioleoyl-sn-glycerol and 200 mM octyl-β-D-glucopyranoside, which was aliquoted, flash-frozen in liquid nitrogen, and stored at −20° C. until use.
For the assay 50 nl of a 100-fold concentrated solution of the test compound in dimethyl sulfoxide (DMSO, Sigma) was pipetted into either a white 1536-well or a white low-volume 384-well microtiter plate (both Greiner Bio-One, Frickenhausen, Germany). […] The concentration of DGKα was adjusted depending of the activity of the enzyme lot and was chosen appropriate to have the assay in the linear range, a typical concentration is about 0.1 nM. The reaction was stopped by the addition of […] of “ADP-Glo-reagent” (1 to 1.5 diluted with water) and the resulting mixture was incubated at 22° C. for 1 h to convert the ATP not consumed in the kinase reaction completely to cAMP. […] The amount of emitted light was taken as a measure for the amount of ADP generated and thereby for the activity of the DGKα.
Background: In ADP-Glo the light output rises with the ADP produced.

The test system of the next test is IFN-γ. Description: IFN-γ secretion in Colo-800 / MART1 T cell co-culture (ELISA). To be noted: monotherapy 50 nM; 72 hours after start of co-culture. It counts as cell-based, human. Background: In an ELISA, binding on a coated surface is turned into a signal by an enzyme label.
Test [1] has as its system MC38 syngeneic mouse tumor model. Description: MC38 syngeneic mouse tumor model, different dose combination ratios (Example 5). It counts as in vivo. To be noted: 3 mg/kg p.o. q.d. each (monotherapy, or 3 mg/kg + 3 mg/kg), day 25 after tumor inoculation. From the text:
The objective of this study was to observe the effects of combination therapies with DGKzeta and/or DGKalpha inhibitors on the tumor volume in the MC38 syngeneic mouse tumor model upon different dose combination ratios. The following eight treatment groups are included: • 1. Vehicle • 2. […] Treatment was started on ~day 8 after tumor inoculation at ~80-100 mm^3 tumor volume. […] Day 25 after tumor inoculation).

A further test relates to MC38 tumor bearing mice. Description: MC38 tumor bearing mice, mean tumor volume (Example 7). It counts as in vivo. To be noted: DGKzeta inhibitor A′ 3 mg/kg QD p.o., TPP-15285 5 mg/kg BIW i.p. From the text: (§1) While the antibody administration was started on day 7 after tumor inoculation, the DGK inhibitor treatment started two days later, on day 9 after tumor inoculation. This schedule was designed to allow the efficient depletion of the Tregs by the anti-mouse CCR8 surrogate antibody before the DGK inhibitor activates the T cells. […] While the antibody administration was started on day 7 after tumor inoculation, the DGK inhibitor treatment started two days later, on day 9 after tumor inoculation. This schedule was designed to allow the efficient depletion of the Tregs by the anti-mouse CCR8 surrogate antibody before the DGK inhibitor activates the T cells. […] While the antibody administration was started on day 7 after tumor inoculation, the DGKalpha and DGKzeta inhibitor treatment started two days later, on day 9 after tumor inoculation. This schedule was designed to allow the efficient depletion of the Tregs by the anti-mouse CCR8 surrogate antibody before the DGK inhibitor activates the T cells. […] The DGKalpha and DGKzeta inhibitor treatment started on day 9 after tumor inoculation.

For test [2], the system named is Hepa 1-6 tumor bearing mice. Description: Hepa 1-6 tumor bearing mice, mean tumor volume (Example 8). Type of test: in vivo. To be noted: DGKzeta inhibitor A′ 3 mg/kg QD p.o., TPP-15285 5 mg/kg BIW i.p.
Description: as §1

Setting [3] is: Day 0 (day 7 after tumor inoculation), DGKalpha inhibitor A 5 mg/kg QD p.o.
[4] abbreviates: Day 4, DGKalpha inhibitor A 5 mg/kg QD p.o.
[5] abbreviates: Day 7, DGKalpha inhibitor A 5 mg/kg QD p.o.
[6] abbreviates: Day 11, DGKalpha inhibitor A 5 mg/kg QD p.o.
The mark [7] stands for this setting: Day 14, DGKalpha inhibitor A 5 mg/kg QD p.o.
The mark [8] stands for this setting: Day 18, DGKalpha inhibitor A 5 mg/kg QD p.o.
Where [9] appears, read: Day 0, DGKalpha inhibitor A 5 mg/kg QD p.o.
Setting [10] is: Day 20, DGKalpha inhibitor A 5 mg/kg QD p.o.

T1 sequence (P23743 whole entry): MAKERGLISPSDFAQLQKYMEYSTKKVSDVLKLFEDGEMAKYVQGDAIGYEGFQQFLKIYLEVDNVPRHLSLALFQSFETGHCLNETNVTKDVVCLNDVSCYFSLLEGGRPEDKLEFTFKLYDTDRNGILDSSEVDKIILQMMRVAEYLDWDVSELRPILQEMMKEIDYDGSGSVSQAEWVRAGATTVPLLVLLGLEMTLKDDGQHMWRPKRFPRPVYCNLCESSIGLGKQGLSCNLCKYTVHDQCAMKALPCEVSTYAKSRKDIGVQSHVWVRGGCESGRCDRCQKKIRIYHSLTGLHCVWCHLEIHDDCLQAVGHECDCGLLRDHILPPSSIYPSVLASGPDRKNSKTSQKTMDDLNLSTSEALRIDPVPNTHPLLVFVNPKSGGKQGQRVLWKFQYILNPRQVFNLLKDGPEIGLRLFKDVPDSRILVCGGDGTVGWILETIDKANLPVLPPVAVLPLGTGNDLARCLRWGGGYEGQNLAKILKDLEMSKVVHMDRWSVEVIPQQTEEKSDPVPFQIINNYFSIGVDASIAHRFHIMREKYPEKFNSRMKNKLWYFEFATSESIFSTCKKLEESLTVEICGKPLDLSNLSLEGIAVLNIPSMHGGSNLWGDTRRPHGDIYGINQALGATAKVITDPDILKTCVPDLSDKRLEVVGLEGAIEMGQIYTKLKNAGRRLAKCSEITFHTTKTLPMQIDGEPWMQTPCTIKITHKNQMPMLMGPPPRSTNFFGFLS

`COc1ccc(C(=O)c2sc(N(c3ccc(F)cc3)[C@H](C)C(N)=O)nc2N)cc1` [DGKzeta inhibitor A′, (R)-2-(N-[4-amino-5-(4-methoxybenzoyl)thiazol-2-yl]-4-fluoro-anilino)propanamide]: the concentration for half-maximal inhibition (IC50) at human DGKalpha was over 3630 nM. Moreover, the “increase in IFN-γ secretion” value in the test on IFN-γ is “moderate”. In addition, the “inhibition of tumor growth” value in test [1] was “only moderate inhibition of tumor growth”. The Mean tumor volume is 91.65 mm^3 in the test with MC38 tumor bearing mice (setting [3]); 216.68 mm^3 in the test on MC38 tumor bearing mice (setting [4]); 480.5 mm^3 with MC38 tumor bearing mice (setting [5]); 982.9 mm^3 in the test with MC38 tumor bearing mice (setting [6]); 1448.04 mm^3 in the test with MC38 tumor bearing mice (setting [7]); 2879.9 mm^3 with MC38 tumor bearing mice (setting [8]). Besides, the Mean tumor volume in test [2] (setting [9]) is 88.99 mm^3; in test [2] (setting [4]) it was 224.86 mm^3; in test [2] (setting [5]), 429.26 mm^3; in test [2] (setting [6]), 624.07 mm^3; in test [2] (setting [7]), 799.19 mm^3; in test [2] (setting [8]) it was 1001.75 mm^3. The same compound showed a Mean tumor volume in test [2] (setting [10]) of 1158.6 mm^3.

Turning to `Cc1ccc2oc(C3CCN(c4c(C(N)=O)c(=O)n(C)c5ccc(F)cc45)CC3)nc2c1` [DGKalpha inhibitor A, 6-fluoro-1-methyl-4-[4-(5-methyl-1,3-benzoxazol-2-yl)piperidin-1-yl]-2-oxo-1,2-dihydroquinoline-3-carboxamide], the IC50 on human DGKalpha is 0.25 nM. In the test with IFN-γ, the “increase in IFN-γ secretion” value was “slight”. The “inhibition of tumor growth” value in test [1] is “only moderate inhibition of tumor growth; also recorded: no single agent activity”. Moreover, the Mean tumor volume with MC38 tumor bearing mice (setting [3]) is listed as 91.74 mm^3; in the test on MC38 tumor bearing mice (setting [4]), 216.59 mm^3; in the test with MC38 tumor bearing mice (setting [5]), 483.4 mm^3; with MC38 tumor bearing mice (setting [6]) it was 1057.04 mm^3; in the test with MC38 tumor bearing mice (setting [7]), 1585.28 mm^3; in the test on MC38 tumor bearing mice (setting [8]) it was 2961.81 mm^3. The Mean tumor volume was 88.99 mm^3 in test [2] (setting [9]); 186.75 mm^3 in test [2] (setting [4]); 321.40 mm^3 in test [2] (setting [5]); 461.93 mm^3 in test [2] (setting [6]); 569.94 mm^3 in test [2] (setting [7]); 787.30 mm^3 in test [2] (setting [8]). The compound also registered a Mean tumor volume in test [2] (setting [10]) of 957.86 mm^3.

The values above are taken from patent US20260232652A1, “COMBINATIONS OF DGK (DIACYLGLYCEROL KINASE) INHIBITORS” (priority 2023, published 2026).
